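All cell lines were grown in 96-well plates and treated with compound for 48 hours. GI50 = concentration required for 50% inhibition of growth. TGI: total growth inhibition.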
Experiments:
Experiment in all cases: growth of human tumour cells (NCI), 48 h
[1] = tested on: RPMI-8226 leukemia
[2] = tested on: SW-620 colon
[3] = tested on: HOP-92 NSCLC
[4] = tested on: CAKI-1 renal
[5] = tested on: HT29 colon
[6] = tested on: SF-268 CNS
[7] = tested on: LOX IMVI melanoma
[8] = tested on: KM12 colon
[9] = tested on: PC-3 prostate
[10] = tested on: SK-MEL-28 melanoma
[11] = tested on: NCI/ADR-RES ovarian
[12] = tested on: HS 578T breast
[13] = tested on: HOP-62 NSCLC
[14] = tested on: SF-539 CNS
[15] = tested on: MCF7 breast
[16] = tested on: M14 melanoma
[17] = tested on: DU-145 prostate
[18] = tested on: UACC-62 melanoma
[19] = tested on: SK-MEL-5 melanoma
[20] = tested on: UO-31 renal
[21] = tested on: SNB-19 CNS
[22] = tested on: MOLT-4 leukemia
[23] = tested on: CCRF-CEM leukemia
[24] = tested on: SK-MEL-2 melanoma
[25] = tested on: K-562 leukemia
[26] = tested on: SN12C renal
[27] = tested on: COLO 205 colon
[28] = tested on: A498 renal
[29] = tested on: NCI-H226 lung
[30] = tested on: SR leukemia
[31] = tested on: SF-295 CNS
[32] = tested on: NCI-H522 lung
[33] = tested on: NCI-H460 lung
[34] = tested on: 786-0 renal
[35] = tested on: HCC-2998 colon
[36] = tested on: UACC-257 melanoma
[37] = tested on: MDA-MB-468 breast
[38] = tested on: TK-10 renal
[39] = tested on: OVCAR-5 ovarian
[40] = tested on: OVCAR-3 ovarian
[41] = tested on: T-47D breast
[42] = tested on: MALME-3M melanoma
[43] = tested on: MDA-MB-231 breast
[44] = tested on: MDA-MB-435
[45] = tested on: RXF 393 renal
[46] = tested on: SK-OV-3 ovarian
[47] = tested on: IGROV1 ovarian
[48] = tested on: HCT-15 colon
[49] = tested on: ACHN renal
[50] = tested on: OVCAR-4 ovarian
[51] = tested on: HCT-116 colon
[52] = tested on: EKVX NSCLC
[53] = tested on: NCI-H23 lung
[54] = tested on: HL-60(TB) leukemia
[55] = tested on: U251 CNS
[56] = tested on: SNB-75 CNS
[57] = tested on: A549 NSCLC
[58] = tested on: OVCAR-8 ovarian
[59] = tested on: BT-549 breast

SMILES: CCOc1ccc(/C=N/NC(=O)Cn2nc(Cc3ccc(OC)cc3)c3onc(C)c3c2=O)cc1
- GI50 [1]: 78.2 µM
- TGI [1]: > 100 µM
- GI50 [2]: 7.37 µM
- TGI [2]: 36.5 µM
- GI50 [3]: 3.61 µM
- TGI [3]: 16.5 µM
- GI50 [4]: 3.8 µM
- TGI [4]: 14.8 µM
- GI50 [5]: 12.3 µM
- TGI [5]: 32.9 µM
- GI50 [6]: 10.5 µM
- TGI [6]: 27.4 µM
- GI50 [7]: 10.9 µM
- TGI [7]: 27.9 µM
- GI50 [8]: 41.8 µM
- TGI [8]: > 100 µM
- GI50 [9]: 12.4 µM
- TGI [9]: 84.8 µM
- GI50 [10]: 10.4 µM
- TGI [10]: 24.8 µM
- GI50 [11]: 5.35 µM
- TGI [11]: 19.7 µM
- GI50 [12]: 4.26 µM
- TGI [12]: 29 µM
- GI50 [13]: 4.8 µM
- TGI [13]: 18.1 µM
- GI50 [14]: 7.35 µM
- TGI [14]: 20 µM
- GI50 [15]: 4.37 µM
- TGI [15]: 23.9 µM
- GI50 [16]: 13.7 µM
- TGI [16]: 75.1 µM
- GI50 [17]: 9.35 µM
- TGI [17]: 26.9 µM
- GI50 [18]: 13.2 µM
- TGI [18]: 32.7 µM
- GI50 [19]: 39.7 µM
- TGI [19]: > 100 µM
- GI50 [20]: 4.08 µM
- TGI [20]: 19.5 µM
- GI50 [21]: 12.2 µM
- TGI [21]: 32.4 µM
- GI50 [22]: 29.8 µM
- TGI [22]: > 100 µM
- GI50 [23]: 33.4 µM
- TGI [23]: > 100 µM
- GI50 [24]: 18.4 µM
- TGI [24]: 41 µM
- GI50 [25]: 37.6 µM
- TGI [25]: > 100 µM
- GI50 [26]: 3.42 µM
- TGI [26]: 13.3 µM
- GI50 [27]: 40 µM
- TGI [27]: > 100 µM
- GI50 [28]: 3.83 µM
- TGI [28]: 13.7 µM
- GI50 [29]: 3.43 µM
- TGI [29]: 15.9 µM
- GI50 [30]: 40.3 µM
- TGI [30]: > 100 µM
- GI50 [31]: 6.77 µM
- TGI [31]: 21.8 µM
- GI50 [32]: 14.5 µM
- TGI [32]: 37.7 µM
- GI50 [33]: 5.32 µM
- TGI [33]: 19.2 µM
- GI50 [34]: 2.99 µM
- TGI [34]: 10.4 µM
- GI50 [35]: 11 µM
- TGI [35]: 27.4 µM
- GI50 [36]: 13.3 µM
- TGI [36]: 60.9 µM
- GI50 [37]: 9.93 µM
- TGI [37]: 29.3 µM
- GI50 [38]: 11 µM
- TGI [38]: 28.8 µM
- GI50 [39]: 14.4 µM
- TGI [39]: 51.8 µM
- GI50 [40]: 3.2 µM
- TGI [40]: 10.4 µM
- GI50 [41]: 3.46 µM
- TGI [41]: 22.3 µM
- GI50 [42]: 4.86 µM
- TGI [42]: 19.5 µM
- GI50 [43]: 9.23 µM
- TGI [43]: 27.9 µM
- GI50 [44]: 25.7 µM
- TGI [44]: > 100 µM
- GI50 [45]: 2.71 µM
- TGI [45]: 6.38 µM
- GI50 [46]: 4.12 µM
- TGI [46]: 14.5 µM
- GI50 [47]: 15.3 µM
- TGI [47]: 43 µM
- GI50 [48]: 15.1 µM
- TGI [48]: > 100 µM
- GI50 [49]: 3.33 µM
- TGI [49]: 11 µM
- GI50 [50]: 10.8 µM
- TGI [50]: 25.3 µM
- GI50 [51]: 3.39 µM
- TGI [51]: 11.6 µM
- GI50 [52]: 10.8 µM
- TGI [52]: 30.3 µM
- GI50 [53]: 10.7 µM
- TGI [53]: 33.1 µM
- GI50 [54]: 51.1 µM
- TGI [54]: > 100 µM
- GI50 [55]: 3.96 µM
- TGI [55]: 17.1 µM
- GI50 [56]: 1.64 µM
- TGI [56]: 3.42 µM
- GI50 [57]: 3.43 µM
- TGI [57]: 13.1 µM
- GI50 [58]: 11.2 µM
- TGI [58]: 42.1 µM
- GI50 [59]: 10.3 µM
- TGI [59]: 27.1 µM

SMILES: CC/C(=C(/c1ccc(O)cc1)c1ccc(OCCN(C)C(=O)COCCOCCNC(=O)Cc2ccc3c(c2)CN([C@@H]2CCC(=O)NC2=O)C3=O)cc1)c1ccccc1
- GI50 [1]: 3.35 µM
- TGI [1]: > 32.3 µM
- GI50 [2]: 0.49 µM
- TGI [2]: > 40.1 µM
- GI50 [3]: 0.0677 µM
- TGI [3]: 1.8 µM
- GI50 [4]: > 26.8 µM
- TGI [4]: > 100 µM
- GI50 [5]: > 29.8 µM
- TGI [5]: > 100 µM
- GI50 [6]: 3 µM
- TGI [6]: > 100 µM
- GI50 [7]: > 37.1 µM
- TGI [7]: > 59.9 µM
- GI50 [8]: 2.98 µM
- TGI [8]: > 47.3 µM
- GI50 [9]: 0.407 µM
- TGI [9]: > 100 µM
- GI50 [10]: 6.19 µM
- TGI [10]: > 44 µM
- GI50 [11]: > 100 µM
- TGI [11]: > 100 µM
- GI50 [12]: 0.427 µM
- TGI [12]: > 25.2 µM
- GI50 [13]: 1.12 µM
- TGI [13]: 10.1 µM
- GI50 [14]: > 32.6 µM
- TGI [14]: > 49.2 µM
- GI50 [15]: < 0.0192 µM
- TGI [15]: > 40 µM
- GI50 [16]: 7.95 µM
- TGI [16]: > 100 µM
- GI50 [17]: > 53 µM
- TGI [17]: > 100 µM
- GI50 [18]: > 31.3 µM
- TGI [18]: > 54.1 µM
- GI50 [19]: 7.88 µM
- TGI [19]: > 28.2 µM
- GI50 [20]: > 100 µM
- TGI [20]: > 100 µM
- GI50 [21]: 1.11 µM
- TGI [21]: > 87 µM
- GI50 [23]: 0.132 µM
- TGI [23]: > 100 µM
- GI50 [24]: 1.14 µM
- TGI [24]: 9.32 µM
- GI50 [25]: 7.91 µM
- TGI [25]: > 100 µM
- GI50 [26]: 1.01 µM
- TGI [26]: > 43 µM
- GI50 [27]: 0.702 µM
- TGI [27]: 8.99 µM
- GI50 [28]: > 100 µM
- TGI [28]: > 100 µM
- GI50 [29]: 1.68 µM
- TGI [29]: > 44.4 µM
- GI50 [30]: 10 µM
- TGI [30]: > 44.9 µM
- GI50 [31]: > 31.3 µM
- TGI [31]: > 100 µM
- GI50 [32]: > 33.1 µM
- TGI [32]: > 53.1 µM
- GI50 [33]: > 56.7 µM
- TGI [33]: > 100 µM
- GI50 [34]: 25.6 µM
- TGI [34]: > 100 µM
- GI50 [35]: 2.16 µM
- TGI [35]: > 35.3 µM
- GI50 [36]: > 44.7 µM
- TGI [36]: > 76 µM
- GI50 [37]: < 0.0167 µM
- TGI [37]: 0.214 µM
- GI50 [38]: > 100 µM
- TGI [38]: > 100 µM
- GI50 [39]: 13 µM
- TGI [39]: > 100 µM
- GI50 [40]: 10.3 µM
- TGI [40]: > 53 µM
- GI50 [41]: < 0.0166 µM
- TGI [41]: 1.48 µM
- GI50 [42]: 0.112 µM
- TGI [42]: 1.01 µM
- GI50 [43]: 0.0438 µM
- TGI [43]: 0.173 µM
- GI50 [44]: 15.7 µM
- TGI [44]: > 50.7 µM
- GI50 [45]: 3.25 µM
- TGI [45]: > 30.7 µM
- GI50 [46]: 3.57 µM
- TGI [46]: > 100 µM
- GI50 [47]: 0.166 µM
- TGI [47]: > 24.8 µM
- GI50 [48]: > 28 µM
- TGI [48]: > 100 µM
- GI50 [49]: > 100 µM
- TGI [49]: > 100 µM
- GI50 [50]: 13.6 µM
- TGI [50]: > 100 µM
- GI50 [51]: > 46.9 µM
- TGI [51]: > 84 µM
- TGI [52]: > 100 µM
- GI50 [53]: > 40.6 µM
- TGI [53]: > 68.9 µM
- GI50 [54]: < 0.0208 µM
- GI50 [55]: > 35.3 µM
- TGI [55]: > 74.7 µM
- GI50 [56]: 0.0486 µM
- TGI [56]: 13.9 µM
- GI50 [57]: > 34.7 µM
- TGI [57]: > 100 µM
- GI50 [58]: 0.939 µM
- TGI [58]: > 100 µM
- GI50 [59]: 0.0554 µM
- TGI [59]: 0.509 µM
